Non-standard residues stand in square brackets, D forms with d. Residues, ends and D or L forms follow the SMILES beside them. *: point of attachment. Dansyl = CN(C)c1cccc2c(S(=O)(=O)*)cccc12; Tos = Cc1ccc(S(=O)(=O)*)cc1; CH2Cl = ClC*
Assays:
[1] = target: T1, factor VII/VIIa in the binary complex with tissue factor (Homo sapiens, UniProt P08709); assay: linked enzyme chromogenic assay of factor X activation (S2222) with factor VII and TF positive J82 cells; assay type: biochemical; conditions: for Ki 5: peptidyl chloromethyl ketones, Table 3; for Relative potency Ki 5 (MU): P3 side chain of peptide P3-Thr-Arg, one unit = inverse of the molar concentration at 5% inhibition of factor X activation; for inhibitory activity (in words): peptides with R3 side chain on threonyl-arginine; for Peptide (Ki 5): free peptide; for Peptide (Ki 5) / Peptidyl-CMK (Ki 5): inverse of molar concentration at 5% inhibition of factor X activation; for Peptidyl-CMK (Ki 5): chloromethyl ketone analogue; for IC50: concentration required for 50% inhibition of the rate of factor X activation, column beside Peptidyl-CMK, read-out: Ki 50 (the source's name)
T1 construct: purified human factor VII (1 nM), purified as described by Fair, D; from tissue; TF endogenous on J82 cells (ATCC HTB1)
T1 sequence (P08709 213-466 limits assumed): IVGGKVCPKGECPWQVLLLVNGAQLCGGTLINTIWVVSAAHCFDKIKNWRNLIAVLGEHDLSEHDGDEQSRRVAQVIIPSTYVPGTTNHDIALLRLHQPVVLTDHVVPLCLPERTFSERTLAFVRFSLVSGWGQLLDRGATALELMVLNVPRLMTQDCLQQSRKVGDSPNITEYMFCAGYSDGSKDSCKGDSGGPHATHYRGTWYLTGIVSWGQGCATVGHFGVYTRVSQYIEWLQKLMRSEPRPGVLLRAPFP
T1 sequence (P08709 61-212 partner limits assumed): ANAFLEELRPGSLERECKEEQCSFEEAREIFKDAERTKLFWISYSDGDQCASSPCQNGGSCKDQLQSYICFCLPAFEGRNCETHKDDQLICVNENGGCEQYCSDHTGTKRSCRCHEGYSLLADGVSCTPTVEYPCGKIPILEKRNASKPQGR
T1 sequence (P13726 33-295 partner): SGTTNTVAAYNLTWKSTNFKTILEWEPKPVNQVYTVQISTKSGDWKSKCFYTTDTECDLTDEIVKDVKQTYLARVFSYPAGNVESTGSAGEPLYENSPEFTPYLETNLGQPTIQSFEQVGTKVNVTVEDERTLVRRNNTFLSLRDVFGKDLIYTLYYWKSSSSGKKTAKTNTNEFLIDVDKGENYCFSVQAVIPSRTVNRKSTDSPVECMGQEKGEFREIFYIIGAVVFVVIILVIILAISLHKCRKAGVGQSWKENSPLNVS
Protocol: Relative potency is expressed as megaunits (MU), where one unit is equal
to the inverse of the molar concentration at 5% inhibition of factor X
activation. Quantitation of inhibition of factor VII/VIIa in the binary
complex with tissue factor was performed in a linked enzyme chromogenic
assay using factor X, purified as described by Schwartz, B. S. et al.
(1981) J. Clin. Invest. 67:1650, and the chromogenic substrate S2222
(Helena Labs, Beaumont, Texa s). Briefly, the peptides were preincubated
with purified human factor VII (1 nM), purified as described by Fair, D.
incubation at room temperature 25 μl of 20 mM CaCl2, 1 ×
10^5 TF positive human bladder carcinoma derived J82 cells (available
from American Type Culture Collection, Rockville, Maryland, under
Accession No. ATCC HTB1), 25 μl of purified human factor human factor
(100 .eta.M) in 50 μl of TRIS buffered saline and 50 μl of 2 mM
S2222 was added. The use of J82 cells is an important feature of these in
vitro assays because they produce significant levels of TF for the
formation of active TF:VII/VIIa. The rate of conversion of factor X to Xa
was monitored kinetically by determination of the chromogenic product of
Inhibition by the compounds of this invention of the proteolytic activity of [TF:VII/VIIa] on factor X was analyzed by a chromogenic assay in which the substrate S-2222 is cleaved by the generated factor Xa. […] Analyses included the absence of effect of all such compounds on factor Xa, an enzyme closely homologous to factor VII and VIIa. […]

[TF:VII/VIIa] complex = target: T2, [TF:VII/VIIa] complex (Homo sapiens, UniProt P08709); assay: clotting inhibition of normal human plasma with J82 cells; assay type: biochemical
T2 construct: from tissue; host or cells: normal human plasma (factor VII); J82 cells (endogenous TF)
T2 sequence (P08709 213-466 limits assumed): as the sequence (P08709 213-466 limits assumed) above
T2 sequence (P08709 61-212 partner limits assumed): as the sequence (P08709 61-212 partner limits assumed) above
T2 sequence (P13726 33-295 partner): as the sequence (P13726 33-295 partner) above
Protocol: Normal human plasma was diluted 1:3 by volume with 0.02 M Na Citrate, 0.14M NaCl pH 7.4 in a glass tube. Diluted plasma (100μl) was then mixed with 100μl of J82 cells at 1×10^6 cells/ml and 100 μl of inhibitor. Plasma clotting times were obtained by visual observation of initial turbidity following addition of 100 μl of 20 mM calcium chloride. Human plasma clotting times were also expressed as calculated milli-units of TF activity (assuming no inhibitor present).

C[C@@H](O)[C@H](NC(=O)[C@@H](N)CC(N)=O)C(=O)N[C@@H](CCCNC(=N)N)C(=O)CCl [Example 8, H-L-Asn-L-Thr-L-Arg-CMK] (H-Asn-Thr-Arg-CH2Cl)
Ki 5 [1]: 44 MU

C[C@@H](O)[C@H](NC(=O)[C@@H](N)CC(N)=O)C(=O)N[C@@H](CCCNC(=N)N)C(=O)O [Example 1, H-L-Asn-L-Thr-L-Arg] (H-Asn-Thr-Arg-OH)
Relative potency Ki 5 (MU) [1]: 6.7 MU

C[C@@H](O)[C@H](NC(=O)[C@@H](N)CCC(=O)O)C(=O)N[C@@H](CCCNC(=N)N)C(=O)O [glutamyl] (H-Glu-Thr-Arg-OH)
inhibitory activity (in words) [1]: inactive

C[C@@H](O)[C@H](NC(=O)[C@@H]1CCCN1)C(=O)N[C@@H](CCCNC(=N)N)C(=O)O [prolyl] (H-Pro-Thr-Arg-OH)
inhibitory activity (in words) [1]: inactive

CC(C)C[C@@H](N)C(=O)N[C@H](C(=O)N[C@@H](CCCNC(=N)N)C(=O)CCl)[C@@H](C)O [Example 15, H-D-Leu-L-Thr-L-Arg-CMK] (H-[dL]-Thr-Arg-CH2Cl)
Ki 5 [1]: 100 MU

CC(C)C[C@H](N)C(=O)N[C@H](C(=O)N[C@@H](CCCNC(=N)N)C(=O)O)[C@@H](C)O [Example 4, H-L-Leu-L-Thr-L-Arg] (H-Leu-Thr-Arg-OH)
Relative potency Ki 5 (MU) [1]: 4.5 MU | Peptide (Ki 5) [1]: 4.5 MU

Cc1ccc(S(=O)(=O)N[C@@H](CC(C)C)C(=O)N[C@H](C(=O)N[C@@H](CCCNC(=N)N)C(=O)CCl)[C@@H](C)O)cc1 [Example 18, Tosyl-L-Leu-L-Thr-L-Arg-CMK] (Tos-Leu-Thr-Arg-CH2Cl)
Ki 5 [1]: 60 MU

C[C@@H](O)[C@H](NC(=O)[C@@H](N)CC(=O)O)C(=O)N[C@@H](CCCNC(=N)N)C(=O)O [Example 2, H-L-Asp-L-Thr-L-Arg] (H-Asp-Thr-Arg-OH)
Relative potency Ki 5 (MU) [1]: 4.8 MU

C[C@@H](O)[C@H](NC(=O)[C@@H](N)Cc1ccccc1)C(=O)N[C@@H](CCCNC(=N)N)C(=O)O [phenylalanyl] (H-Phe-Thr-Arg-OH)
inhibitory activity (in words) [1]: inactive

C[C@@H](O)[C@H](NC(=O)[C@H](N)Cc1ccccc1)C(=O)N[C@@H](CCCNC(=N)N)C(=O)CCl [Example 16, H-D-Phe-L-Thr-L-Arg-CMK] (H-[dF]-Thr-Arg-CH2Cl)
Ki 5 [1]: 42 MU

N=C(N)NCCC[C@H](NC(=O)[C@H](CO)NC(=O)[C@@H](N)CC(N)=O)C(=O)CCl [Example 22, H-L-Asn-L-Ser-L-Arg-CMK] (H-Asn-Ser-Arg-CH2Cl)
Ki 5 [1]: 60 MU

C[C@@H](O)[C@H](NC(=O)[C@@H](N)CCC(N)=O)C(=O)N[C@@H](CCCNC(=N)N)C(=O)O [Example 6, H-L-Gln-L-Thr-L-Arg] (H-Gln-Thr-Arg-OH)
Relative potency Ki 5 (MU) [1]: 2.5 MU

CC[C@H](C)[C@H](N)C(=O)N[C@H](C(=O)N[C@@H](CCCNC(=N)N)C(=O)O)[C@@H](C)O [isoleucyl] (H-Ile-Thr-Arg-OH)
inhibitory activity (in words) [1]: inactive

C[C@@H](O)[C@H](N)C(=O)N[C@H](C(=O)N[C@@H](CCCNC(=N)N)C(=O)O)[C@@H](C)O [Example 5, H-L-Thr-L-Thr-L-Arg] (H-Thr-Thr-Arg-OH)
Relative potency Ki 5 (MU) [1]: 2.6 MU

CC(C)[C@H](N)C(=O)N[C@H](C(=O)N[C@@H](CCCNC(=N)N)C(=O)O)[C@@H](C)O [valyl] (H-Val-Thr-Arg-OH)
inhibitory activity (in words) [1]: inactive

CC(C)C[C@H](NS(=O)(=O)c1cccc2c(N(C)C)cccc12)C(=O)N[C@H](C(=O)N[C@@H](CCCNC(=N)N)C(=O)CCl)[C@@H](C)O [Example 19, Dansyl-L-Leu-L-Thr-L-Arg-CMK] (Dansyl-Leu-Thr-Arg-CH2Cl)
Ki 5 [1]: 35 MU

C[C@@H](O)[C@H](NC(=O)[C@@H](N)Cc1c[nH]cn1)C(=O)N[C@@H](CCCNC(=N)N)C(=O)O [Example 3, H-L-His-L-Thr-L-Arg] (H-His-Thr-Arg-OH)
Relative potency Ki 5 (MU) [1]: 6.2 MU | Peptide (Ki 5) [1]: 6.2 MU

CC(=O)N[C@@H](CC(C)C)C(=O)N[C@H](C(=O)N[C@@H](CCCNC(=N)N)C(=O)CCl)[C@@H](C)O [Example 17, Ac-L-Leu-L-Thr-L-Arg-CMK] (Ac-Leu-Thr-Arg-CH2Cl)
Ki 5 [1]: 60 MU

C[C@@H](O)[C@H](NC(=O)[C@@H](N)CC(=O)O)C(=O)N[C@@H](CCCNC(=N)N)C(=O)CCl [Example 9, H-L-Asp-L-Thr-L-Arg-CMK] (H-Asp-Thr-Arg-CH2Cl)
Ki 5 [1]: 60 MU

CC(C)C[C@H](N)C(=O)N1CCC[C@H]1C(=O)N[C@@H](CCCNC(=N)N)C(=O)CCl [Example 21, H-L-Leu-L-Pro-L-Arg-CMK] (H-Leu-Pro-Arg-CH2Cl)
Ki 5 [1]: 60 MU

C[C@@H](O)[C@H](NC(=O)[C@@H](N)Cc1ccc(O)cc1)C(=O)N[C@@H](CCCNC(=N)N)C(=O)O [tyrosyl] (H-Tyr-Thr-Arg-OH)
inhibitory activity (in words) [1]: inactive

CC(C)C[C@H](N)C(=O)N[C@@H](CO)C(=O)N[C@@H](CCCNC(=N)N)C(=O)CCl [Example 20, H-L-Leu-L-Ser-L-Arg-CMK] (H-Leu-Ser-Arg-CH2Cl)
Ki 5 [1]: 60 MU

CSCC[C@H](N)C(=O)N[C@H](C(=O)N[C@@H](CCCNC(=N)N)C(=O)O)[C@@H](C)O [methionyl] (H-Met-Thr-Arg-OH)
inhibitory activity (in words) [1]: inactive

CC(C)C[C@H](N)C(=O)N[C@H](C(=O)N[C@@H](CCCNC(=N)N)C(=O)CCl)[C@@H](C)O [Example 11, H-L-Leu-L-Thr-L-Arg-CMK] (H-Leu-Thr-Arg-CH2Cl)
inhibition at 3 µM ([TF:VII/VIIa] complex; LTR-CMK final conc 3 μM): 5.3% | inhibition at 30 µM ([TF:VII/VIIa] complex; LTR-CMK final conc 30 μM): 41% | inhibition at 300 µM ([TF:VII/VIIa] complex; LTR-CMK final conc 300 μM): 75% | Peptidyl-CMK (Ki 5) [1]: 67.5 MU | IC50 [1]: 95 µM | Ki 5 [1]: 68 MU

C[C@@H](O)[C@H](NC(=O)[C@@H](N)CO)C(=O)N[C@@H](CCCNC(=N)N)C(=O)O [seryl] (H-Ser-Thr-Arg-OH)
inhibitory activity (in words) [1]: inactive

C[C@@H](O)[C@H](NC(=O)[C@@H](N)Cc1c[nH]c2ccccc12)C(=O)N[C@@H](CCCNC(=N)N)C(=O)O [tryptophanyl] (H-Trp-Thr-Arg-OH)
inhibitory activity (in words) [1]: inactive

C[C@@H](O)[C@H](NC(=O)[C@@H](N)Cc1c[nH]cn1)C(=O)N[C@@H](CCCNC(=N)N)C(=O)CCl [Example 10, H-L-His-L-Thr-L-Arg-CMK] (H-His-Thr-Arg-CH2Cl)
Peptidyl-CMK (Ki 5) [1]: 54.0 MU | IC50 [1]: 120 µM | Ki 5 [1]: 54 MU

C[C@@H](O)[C@H](N)C(=O)N[C@@H](CCCNC(=N)N)C(=O)O [Example 7, H-L-Thr-L-Arg] (H-Thr-Arg-OH)
Relative potency Ki 5 (MU) [1]: 2.0 MU | inhibitory activity (in words) [1]: slight activity

C[C@@H](O)[C@H](NC(=O)CN)C(=O)N[C@@H](CCCNC(=N)N)C(=O)O [glycyl] (H-Gly-Thr-Arg-OH)
inhibitory activity (in words) [1]: inactive

From patent US5023236A, “Factor VII/VIIA active site inhibitors” (Corvas, Inc., priority 1989, dated 1991)
